Experimental data: patent US20200163984A1, “USE OF ISOVALERYL SPIRAMYCIN I, II AND/OR III IN MANUFACTURING MEDICAMENT FOR TREATING AND/OR PREVENTING TUMOR, AND MEDICAMENT” (SHENYANG FUYANG PHARMACEUTICAL TECHNOLOGY CO., LTD., priority 2017, published 2020)

How the values were obtained:
[1] = tested on: transplanted tumor of human breast cancer cell MCF-7; assay: MCF-7 transplanted tumor in nude mice
Procedure: (§1) Then cell concentration was adjusted to 1×10^7/ml with matrigel, then each nude mouse was inoculated subcutaneously with 0.2 ml of cells at its right armpit and recorded as the first day of inoculation. When the tumor grows to be greater than or equal to 100 mm^3, the mice were randomly divided into 11 groups with 6 mice in each group: a model group, a cyclophosphamide group, isovaleryl spiramycin I groups with doses of 25, 50 and 100 mg/kg, isovaleryl spiramycin II groups with doses of 25, 50 and 100 mg/kg, and isovaleryl spiramycin III groups with doses of 25, 50 and 100 mg/kg. Each group was continuously administered intragastrically for 30 days with a dose of 20 ml/kg. The mice were sacrificed the next day after drug withdrawal and the indicators were tested. The long diameter and short diameter of the tumor, and the body weight of each mouse were recorded every 3 days from drug administration to nude mouse sacrifice.
(§2) The body weight of the nude mice and the long diameter (a) and short diameter (b) of the transplanted tumor were measured every 3 days, and the tumor volume (v), relative tumor volume (RTV) and relative tumor proliferation rate (T/C) are calculated respectively according to the following formulas, wherein V=a×b^2/2; RTV=V/V0 (V0 is the tumor volume before administration, V is the tumor volume before sacrifice), and T/C (%)=treatment group RTV/model control group RTV×100%.
(§3) Each mouse was weighed and sacrificed. After the tumor was completely stripped off from the body of the mouse, the non-tumor tissues such as blood stains and fat were removed to weigh the tumor and calculate the tumor growth inhibition rate. The average tumor weight of each group of mice is used as an indicator of efficacy. Tumor growth inhibition rate (%)=(1−the average tumor weight of the treatment group/the average tumor weight of the model group)×100%.

[2] = tested on: transplanted tumor of HT-29 cells; assay: HT-29 transplanted tumor in nude mice; settings: for Inhibition Rate (%) / Tumor Weight: HT-29 nude mice; for Tumor Volume (mm3) (d30): d 30
Procedure: as §1, with “group:” for “group: a model group, a cyclophosphamide group,”
as §2, §3

[3] = tested on: transplanted tumor of HL60 cells; assay: HL-60 transplanted tumor in nude mice; settings: for Tumor Volume (mm3) (d30): d 30
Procedure: as §1, with “HL-60 cells in a logarithmic growth phase were taken and subjected to a trypan blue exclusion experiment showing that the cell viability was more than 95%, then the cells were subjected to trypsinization, centrifugation, and supernatant removal. Then” for “Then”, “group:” for “group: a model group, a cyclophosphamide group,”, “the” for “the body”
as §2, §3

[4] = MCF-7, 25 mg/kg (low dose) i.g. 30 days
[5] = MCF-7, 50 mg/kg (medium dose) i.g. 30 days
[6] = MCF-7, 100 mg/kg (high dose) i.g. 30 days
[7] = HT-29, high dose (100 mg/kg in method) i.g. 30 days
[8] = HT-29, low dose (25 mg/kg in method) i.g. 30 days
[9] = HT-29, medium dose (50 mg/kg in method) i.g. 30 days
[10] = HL-60, high dose (100 mg/kg in method) i.g. 30 days
[11] = HL-60, low dose (25 mg/kg in method) i.g. 30 days
[12] = HL-60, medium dose (50 mg/kg in method) i.g. 30 days

In the case of `CO[C@@H]1[C@@H](O[C@@H]2O[C@H](C)[C@@H](O[C@H]3C[C@@](C)(O)[C@@H](OC(=O)CC(C)C)[C@H](C)O3)[C@H](N(C)C)[C@H]2O)[C@@H](CC=O)C[C@@H](C)[C@@H](O[C@H]2CC[C@H](N(C)C)[C@@H](C)O2)/C=C/C=C/C[C@@H](C)OC(=O)C[C@H]1O` [Isovaleryl spiramycin I, isovaleryl spiramycin I], the “Inhibition Rate (tumor growth inhibition rate)” value [1, 4] is reported as 31.10%, the “Relative Tumor Proliferation Rate (T/C)” value [1, 4] is reported as 71.92% and the “Relative Tumor Volume (RTV)” value [1, 4] is reported as 12.59 ± 7.49. For the same compound, the “Tumor Volume (d 1)” value [1, 4] was 139.97 ± 26.58 mm3, the “Tumor Volume (d 30)” value [1, 4] was 1634.85 ± 789.61 mm3 and the “Tumor Weight” value [1, 4] was 1.87 ± 0.25 g. The “Inhibition Rate (tumor growth inhibition rate)” value [1, 5] was 51.72%, the “Relative Tumor Proliferation Rate (T/C)” value [1, 5] was 49.05% and the “Relative Tumor Volume (RTV)” value [1, 5] was 8.58 ± 4.41. The “Tumor Volume (d 1)” value [1, 5] was 146.57 ± 32.97 mm3, the “Tumor Volume (d 30)” value [1, 5] was 1162.80 ± 394.71 mm3 and the “Tumor Weight” value [1, 5] was 1.31 ± 0.50 g. The “Inhibition Rate (tumor growth inhibition rate)” value [1, 6] was 70.12%, the “Relative Tumor Proliferation Rate (T/C)” value [1, 6] was 30.80% and the “Relative Tumor Volume (RTV)” value [1, 6] was 5.39 ± 0.97. For the same compound, the “Tumor Volume (d 1)” value [1, 6] was 124.02 ± 15.14 mm3, the “Tumor Volume (d 30)” value [1, 6] was 656.95 ± 49.58 mm3 and the “Tumor Weight” value [1, 6] was 0.81 ± 0.08 g. The “tumor volume and relative tumor volume compared with the model group” value (from here on “tumor volume and relative tumor volume”) ([1]; MCF-7, low, medium and high doses, P<0.05) was “significantly lower”, the “mouse weight compared with the model group” value ([1]; mouse, in vivo) was “no significant changes” and the “Relative Tumor Proliferation Rate (T/C)” value [2, 7] was 29.11%. For the same compound, the “tumor growth inhibition rate” value [2, 7] was 70.14%, the “Relative Tumor Proliferation Rate (T/C)” value [2, 8] was 81.60% and the “tumor growth inhibition rate” value [2, 8] was 16.10%. The “tumor volume and relative tumor volume” value ([2]; HT-29, low, medium and high doses, P<0.05) was “significantly lower”, the “Relative Tumor Proliferation Rate (T/C)” value [2, 9] was 49.22% and the “tumor growth inhibition rate” value [2, 9] was 49.72%. The “Inhibition Rate (%)” value ([2]; 25 mg/kg) was 16.10%, the “Tumor Weight” value ([2]; 25 mg/kg) was 1.97 ± 0.31 g and the “Inhibition Rate (%)” value ([2]; 50 mg/kg) was 49.72%. The “Tumor Weight” value ([2]; 50 mg/kg) was 1.18 ± 0.34 g, the “Inhibition Rate (%)” value ([2]; 100 mg/kg) was 70.14% and the “Tumor Weight” value ([2]; 100 mg/kg) was 0.70 ± 0.29 g. The “Relative Tumor Proliferation Rate (T/C)” value ([2]; dose 25 mg/kg) was 81.60%, the “Relative Tumor Volume (RTV)” value ([2]; dose 25 mg/kg) was 11.76 ± 4.03 and the “Tumor Volume (mm3) (d 1)” value ([2]; dose 25 mg/kg) was 162.77 ± 38.95 mm3. The “Tumor Volume (mm3) (d30)” value ([2]; dose 25 mg/kg) was 1803.98 ± 271.55 mm3, the “Relative Tumor Proliferation Rate (T/C)” value ([2]; dose 50 mg/kg) was 49.22% and the “Relative Tumor Volume (RTV)” value ([2]; dose 50 mg/kg) was 7.09 ± 1.47. The “Tumor Volume (mm3) (d 1)” value ([2]; dose 50 mg/kg) was 157.41 ± 37.31 mm3, the “Tumor Volume (mm3) (d30)” value ([2]; dose 50 mg/kg) was 1109.16 ± 320.27 mm3 and the “Relative Tumor Proliferation Rate (T/C)” value ([2]; dose 100 mg/kg) was 29.11%. For the same compound, the “Relative Tumor Volume (RTV)” value ([2]; dose 100 mg/kg) was 4.19 ± 2.23, the “Tumor Volume (mm3) (d 1)” value ([2]; dose 100 mg/kg) was 169.25 ± 35.39 mm3 and the “Tumor Volume (mm3) (d30)” value ([2]; dose 100 mg/kg) was 648.93 ± 198.53 mm3. The “mouse weight compared with the model group” value ([2]; mouse, in vivo) was “no significant changes”, the “Body Weight (g) (d1)” value ([2]; mouse, in vivo, 25 mg/kg) was 21.41 ± 1.41 g and the “Body Weight (g) (d30)” value ([2]; mouse, in vivo, 25 mg/kg) was 20.98 ± 0.99 g. For the same compound, the “Body Weight (g) (d1)” value ([2]; mouse, in vivo, 50 mg/kg) was 21.31 ± 1.53 g, the “Body Weight (g) (d30)” value ([2]; mouse, in vivo, 50 mg/kg) was 20.56 ± 1.09 g and the “Body Weight (g) (d1)” value ([2]; mouse, in vivo, 100 mg/kg) was 20.77 ± 1.13 g. The “Body Weight (g) (d30)” value ([2]; mouse, in vivo, 100 mg/kg) was 21.19 ± 1.26 g, the “Relative Tumor Proliferation Rate (T/C)” value [3, 10] was 32.70% and the “tumor growth inhibition rate” value [3, 10] was 64.19%. For the same compound, the “Relative Tumor Proliferation Rate (T/C)” value [3, 11] was 84.96%, the “tumor growth inhibition rate” value [3, 11] was 11.57% and the “tumor volume and relative tumor volume” value ([3]; HL-60, low, medium and high doses, P<0.05) was “significantly lower”. The “Relative Tumor Proliferation Rate (T/C)” value [3, 12] was 59.54%, the “tumor growth inhibition rate” value [3, 12] was 34.78% and the “Inhibition Rate (%)” value ([3]; dose 25 mg/kg) was 11.57%. The “Relative Tumor Proliferation Rate (T/C)” value ([3]; dose 25 mg/kg) was 84.96%, the “Relative Tumor Volume (RTV)” value ([3]; dose 25 mg/kg) was 9.56 ± 2.41 and the “Tumor Weight” value ([3]; dose 25 mg/kg) was 2.00 ± 0.34 g. For the same compound, the “Tumor Volume (mm3) (d 1)” value ([3]; dose 25 mg/kg) was 182.56 ± 25.80 mm3, the “Tumor Volume (mm3) (d30)” value ([3]; dose 25 mg/kg) was 1702.01 ± 305.75 mm3 and the “Inhibition Rate (%)” value ([3]; dose 50 mg/kg) was 34.78%. The “Relative Tumor Proliferation Rate (T/C)” value ([3]; dose 50 mg/kg) was 59.54%, the “Relative Tumor Volume (RTV)” value ([3]; dose 50 mg/kg) was 6.70 ± 2.58 and the “Tumor Weight” value ([3]; dose 50 mg/kg) was 1.48 ± 0.38 g. The “Tumor Volume (mm3) (d 1)” value ([3]; dose 50 mg/kg) was 189.04 ± 24.48 mm3, the “Tumor Volume (mm3) (d30)” value ([3]; dose 50 mg/kg) was 1230.70 ± 332.94 mm3 and the “Inhibition Rate (%)” value ([3]; dose 100 mg/kg) was 64.19%. The “Relative Tumor Proliferation Rate (T/C)” value ([3]; dose 100 mg/kg) was 32.70%, the “Relative Tumor Volume (RTV)” value ([3]; dose 100 mg/kg) was 3.68 ± 2.51 and the “Tumor Weight” value ([3]; dose 100 mg/kg) was 0.81 ± 0.42 g. For the same compound, the “Tumor Volume (mm3) (d 1)” value ([3]; dose 100 mg/kg) was 183.82 ± 20.41 mm3, the “Tumor Volume (mm3) (d30)” value ([3]; dose 100 mg/kg) was 657.95 ± 411.53 mm3 and the “mouse weight compared with the model group” value ([3]; mouse, in vivo) was “no significant changes”. For the same compound, the “Body Weight (g) (d1)” value ([3]; mouse, in vivo, 25 mg/kg) was 20.75 ± 1.20 g, the “Body Weight (g) (d30)” value ([3]; mouse, in vivo, 25 mg/kg) was 20.66 ± 1.08 g and the “Body Weight (g) (d1)” value ([3]; mouse, in vivo, 50 mg/kg) was 20.4 ± 1.60 g. For the same compound, the “Body Weight (g) (d30)” value ([3]; mouse, in vivo, 50 mg/kg) was 20.35 ± 1.20 g, the “Body Weight (g) (d1)” value ([3]; mouse, in vivo, 100 mg/kg) was 20.63 ± 1.33 g and the “Body Weight (g) (d30)” value ([3]; mouse, in vivo, 100 mg/kg) was 20.56 ± 1.77 g.
